Experimental data from ChEMBL document CHEMBL1152560, “Substituted 2-arylbenzothiazoles as kinase inhibitors: hit-to-lead optimization” (Bioorg Med Chem, 2009).

Legend:
[1] = molecular target: T1, Testis-specific serine/threonine-protein kinase 1 (Homo sapiens) (UniProt Q9BXA7); test: Residual activity of TSSK1 at 1 uM by microplate scintillation counting
T1 sequence (whole entry): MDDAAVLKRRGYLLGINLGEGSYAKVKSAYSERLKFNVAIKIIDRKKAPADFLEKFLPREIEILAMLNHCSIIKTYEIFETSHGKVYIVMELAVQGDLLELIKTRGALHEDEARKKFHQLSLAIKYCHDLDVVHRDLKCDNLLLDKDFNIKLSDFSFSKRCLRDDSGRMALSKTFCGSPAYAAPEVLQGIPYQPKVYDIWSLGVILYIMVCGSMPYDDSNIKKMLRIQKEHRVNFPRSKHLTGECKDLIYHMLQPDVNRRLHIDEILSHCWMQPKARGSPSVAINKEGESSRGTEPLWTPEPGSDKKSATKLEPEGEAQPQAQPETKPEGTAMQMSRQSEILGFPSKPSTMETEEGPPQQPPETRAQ

[2] = molecular target: Serine/threonine-protein kinase MARK1 (Homo sapiens) (UniProt Q9P0L2); test: Residual activity of MARK1 at 10 uM by microplate scintillation counting
Sequence of Serine/threonine-protein kinase MARK1 (Homo sapiens) (Q9P0L2 whole entry, looked up): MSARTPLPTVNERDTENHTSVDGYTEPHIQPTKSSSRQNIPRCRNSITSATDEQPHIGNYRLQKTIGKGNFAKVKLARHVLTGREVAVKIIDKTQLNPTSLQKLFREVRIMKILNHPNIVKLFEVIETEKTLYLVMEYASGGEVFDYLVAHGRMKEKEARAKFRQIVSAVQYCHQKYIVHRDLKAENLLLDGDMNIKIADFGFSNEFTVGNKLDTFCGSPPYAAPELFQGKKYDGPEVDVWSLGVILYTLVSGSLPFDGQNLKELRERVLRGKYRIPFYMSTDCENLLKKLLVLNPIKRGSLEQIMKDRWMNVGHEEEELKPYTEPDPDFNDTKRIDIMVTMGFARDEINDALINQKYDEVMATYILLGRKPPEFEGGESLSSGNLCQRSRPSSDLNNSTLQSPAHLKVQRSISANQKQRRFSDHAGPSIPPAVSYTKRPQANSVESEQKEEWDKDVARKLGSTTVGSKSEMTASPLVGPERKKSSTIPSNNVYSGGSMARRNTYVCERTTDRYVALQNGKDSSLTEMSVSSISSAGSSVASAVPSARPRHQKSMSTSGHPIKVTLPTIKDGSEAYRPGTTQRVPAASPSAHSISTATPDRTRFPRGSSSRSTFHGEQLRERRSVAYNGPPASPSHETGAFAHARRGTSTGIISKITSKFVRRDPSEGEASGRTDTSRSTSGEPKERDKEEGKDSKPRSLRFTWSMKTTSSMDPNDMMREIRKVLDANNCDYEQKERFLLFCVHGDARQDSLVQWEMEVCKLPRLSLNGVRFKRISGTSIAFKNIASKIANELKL

[3] = molecular target: T2, Ephrin type-A receptor 3 (Homo sapiens) (UniProt P29320); test: Residual activity of EPHA3 at 1 uM by microplate scintillation counting
T2 sequence (whole entry): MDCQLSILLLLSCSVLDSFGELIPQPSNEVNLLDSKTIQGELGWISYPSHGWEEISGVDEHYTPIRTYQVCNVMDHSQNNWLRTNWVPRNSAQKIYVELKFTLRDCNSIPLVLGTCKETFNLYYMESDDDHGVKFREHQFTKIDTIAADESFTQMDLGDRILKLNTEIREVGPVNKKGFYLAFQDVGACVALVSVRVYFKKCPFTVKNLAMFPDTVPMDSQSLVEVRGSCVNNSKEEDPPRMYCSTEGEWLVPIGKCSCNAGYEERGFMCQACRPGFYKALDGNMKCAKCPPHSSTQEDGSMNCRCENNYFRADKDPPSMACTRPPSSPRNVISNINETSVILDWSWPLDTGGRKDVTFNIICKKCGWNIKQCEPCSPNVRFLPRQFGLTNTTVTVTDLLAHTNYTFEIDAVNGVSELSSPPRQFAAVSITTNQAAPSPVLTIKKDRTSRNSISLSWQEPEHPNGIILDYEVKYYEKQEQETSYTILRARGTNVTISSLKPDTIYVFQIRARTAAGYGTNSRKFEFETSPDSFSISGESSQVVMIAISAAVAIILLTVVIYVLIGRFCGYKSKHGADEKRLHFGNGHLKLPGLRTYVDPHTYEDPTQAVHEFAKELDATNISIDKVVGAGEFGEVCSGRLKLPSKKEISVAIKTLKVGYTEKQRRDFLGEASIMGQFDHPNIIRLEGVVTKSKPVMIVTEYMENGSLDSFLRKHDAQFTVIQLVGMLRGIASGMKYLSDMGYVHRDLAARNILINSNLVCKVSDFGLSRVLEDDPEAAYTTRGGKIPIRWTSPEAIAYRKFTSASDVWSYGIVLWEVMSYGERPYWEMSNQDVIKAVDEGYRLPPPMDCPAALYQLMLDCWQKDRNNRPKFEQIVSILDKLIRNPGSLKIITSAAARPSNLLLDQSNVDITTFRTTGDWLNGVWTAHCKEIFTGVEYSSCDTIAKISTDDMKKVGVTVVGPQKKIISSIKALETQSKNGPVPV

[4] = molecular target: Tyrosine-protein kinase ABL1 (Homo sapiens) (UniProt P00519); test: Residual activity of wild type ABL1 at 10 uM by microplate scintillation counting
Sequence of Tyrosine-protein kinase ABL1 (Homo sapiens) (P00519 whole entry): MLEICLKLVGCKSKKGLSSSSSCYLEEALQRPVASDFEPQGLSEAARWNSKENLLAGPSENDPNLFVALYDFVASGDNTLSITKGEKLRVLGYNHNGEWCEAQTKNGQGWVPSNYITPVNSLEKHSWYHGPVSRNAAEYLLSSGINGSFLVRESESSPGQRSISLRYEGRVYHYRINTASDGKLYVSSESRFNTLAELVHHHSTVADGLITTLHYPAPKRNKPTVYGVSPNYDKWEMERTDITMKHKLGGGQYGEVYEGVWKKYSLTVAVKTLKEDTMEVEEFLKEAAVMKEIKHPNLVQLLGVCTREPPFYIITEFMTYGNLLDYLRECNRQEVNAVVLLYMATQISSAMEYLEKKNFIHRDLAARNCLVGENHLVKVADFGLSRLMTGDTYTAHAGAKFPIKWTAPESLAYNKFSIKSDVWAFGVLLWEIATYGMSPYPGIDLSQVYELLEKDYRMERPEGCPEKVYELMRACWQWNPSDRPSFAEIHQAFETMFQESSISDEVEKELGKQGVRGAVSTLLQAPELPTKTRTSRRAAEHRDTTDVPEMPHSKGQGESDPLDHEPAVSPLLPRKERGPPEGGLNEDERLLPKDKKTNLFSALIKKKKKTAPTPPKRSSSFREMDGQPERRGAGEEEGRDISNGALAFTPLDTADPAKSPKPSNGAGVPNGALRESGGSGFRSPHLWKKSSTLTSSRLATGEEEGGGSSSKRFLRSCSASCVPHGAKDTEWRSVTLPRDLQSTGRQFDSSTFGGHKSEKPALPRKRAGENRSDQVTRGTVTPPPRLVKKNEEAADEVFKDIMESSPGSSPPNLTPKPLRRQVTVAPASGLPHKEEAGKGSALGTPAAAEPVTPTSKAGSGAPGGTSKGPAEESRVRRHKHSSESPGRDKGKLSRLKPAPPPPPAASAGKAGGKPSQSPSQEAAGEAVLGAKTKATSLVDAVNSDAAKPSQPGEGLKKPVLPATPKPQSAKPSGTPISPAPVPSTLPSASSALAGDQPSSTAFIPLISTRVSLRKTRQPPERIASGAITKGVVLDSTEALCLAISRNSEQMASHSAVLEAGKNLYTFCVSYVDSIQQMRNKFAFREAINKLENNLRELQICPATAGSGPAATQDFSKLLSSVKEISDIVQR

[5] = molecular target: T3, Lymphokine-activated killer T-cell-originated protein kinase (Homo sapiens) (UniProt Q96KB5); test: Residual activity of PBK at 1 uM by microplate scintillation counting
T3 sequence (whole entry): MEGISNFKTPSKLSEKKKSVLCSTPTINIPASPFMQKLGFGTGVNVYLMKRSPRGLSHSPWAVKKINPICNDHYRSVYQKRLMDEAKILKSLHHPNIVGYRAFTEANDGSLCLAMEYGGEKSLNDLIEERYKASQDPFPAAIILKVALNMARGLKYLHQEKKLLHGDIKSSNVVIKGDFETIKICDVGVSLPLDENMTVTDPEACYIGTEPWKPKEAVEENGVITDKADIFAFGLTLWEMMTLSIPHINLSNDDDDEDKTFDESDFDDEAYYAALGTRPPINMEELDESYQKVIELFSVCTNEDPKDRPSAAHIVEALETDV

[6] = molecular target: T2, Ephrin type-A receptor 3 (Homo sapiens); test: Residual activity of EPHA3 at 0.1 uM by microplate scintillation counting
[7] = molecular target: Serine/threonine-protein kinase WNK2 (Homo sapiens) (UniProt Q9Y3S1); test: Residual activity of WNK2 at 10 uM by microplate scintillation counting
[8] = molecular target: Interleukin-1 receptor-associated kinase 1 (Homo sapiens) (UniProt P51617); test: Residual activity of IRAKI at 1 uM by microplate scintillation counting
Sequence of Interleukin-1 receptor-associated kinase 1 (Homo sapiens) (P51617 whole entry, looked up): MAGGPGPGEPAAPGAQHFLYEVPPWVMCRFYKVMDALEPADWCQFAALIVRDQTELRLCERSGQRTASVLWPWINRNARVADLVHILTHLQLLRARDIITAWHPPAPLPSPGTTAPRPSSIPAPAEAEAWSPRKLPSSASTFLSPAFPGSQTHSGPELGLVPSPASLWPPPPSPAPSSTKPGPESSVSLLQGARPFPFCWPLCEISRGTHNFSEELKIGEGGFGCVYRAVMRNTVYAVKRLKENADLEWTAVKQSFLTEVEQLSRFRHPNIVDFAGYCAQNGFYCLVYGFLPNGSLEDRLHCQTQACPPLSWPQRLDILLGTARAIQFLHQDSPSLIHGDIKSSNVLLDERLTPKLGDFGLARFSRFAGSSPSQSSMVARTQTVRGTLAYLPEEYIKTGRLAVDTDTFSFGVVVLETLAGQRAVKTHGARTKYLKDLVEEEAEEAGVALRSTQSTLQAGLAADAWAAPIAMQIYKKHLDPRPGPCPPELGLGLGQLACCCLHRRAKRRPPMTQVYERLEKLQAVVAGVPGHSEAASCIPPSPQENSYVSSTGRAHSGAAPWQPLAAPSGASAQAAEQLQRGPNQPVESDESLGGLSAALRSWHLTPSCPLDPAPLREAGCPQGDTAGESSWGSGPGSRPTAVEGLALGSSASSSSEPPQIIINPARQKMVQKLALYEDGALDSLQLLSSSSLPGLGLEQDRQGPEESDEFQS

[9] = molecular target: CDK8/Cyclin C (Homo sapiens) (UniProt P49336+P24863); test: Residual activity of CDK8/Cyclin C at 10 uM by microplate scintillation counting; format: protein-complex assay
[10] = tested on: RAF proto-oncogene serine/threonine-protein kinase (Homo sapiens), P04049 [Y340D,Y341D]; test: Residual activity of RAF1 Y340D/Y341D mutant at 0.1 uM by microplate scintillation counting
[11] = molecular target: Casein kinase I isoform gamma-2 (Homo sapiens) (UniProt P78368); test: Residual activity of CK1gamma2 at 0.1 uM by microplate scintillation counting
Sequence of Casein kinase I isoform gamma-2 (Homo sapiens) (P78368 whole entry, looked up, canonical isoform): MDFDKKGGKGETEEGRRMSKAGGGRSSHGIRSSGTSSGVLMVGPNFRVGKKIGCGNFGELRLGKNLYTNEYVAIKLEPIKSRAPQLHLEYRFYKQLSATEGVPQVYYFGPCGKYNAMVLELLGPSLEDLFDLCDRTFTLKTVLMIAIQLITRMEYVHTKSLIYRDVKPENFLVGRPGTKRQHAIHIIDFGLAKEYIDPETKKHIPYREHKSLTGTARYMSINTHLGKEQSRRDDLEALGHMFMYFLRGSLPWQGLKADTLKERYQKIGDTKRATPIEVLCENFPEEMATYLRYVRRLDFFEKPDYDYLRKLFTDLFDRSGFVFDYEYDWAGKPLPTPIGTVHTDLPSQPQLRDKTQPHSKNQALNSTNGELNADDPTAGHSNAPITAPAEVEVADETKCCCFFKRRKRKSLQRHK

[12] = molecular target: Receptor-interacting serine/threonine-protein kinase 2 (Homo sapiens) (UniProt O43353); test: Residual activity of RIPK2 at 10 uM by microplate scintillation counting
[13] = molecular target: Protein kinase C eta type (Homo sapiens) (UniProt P24723); test: Residual activity of PKCeta at 10 uM by microplate scintillation counting
Sequence of Protein kinase C eta type (Homo sapiens) (P24723 whole entry): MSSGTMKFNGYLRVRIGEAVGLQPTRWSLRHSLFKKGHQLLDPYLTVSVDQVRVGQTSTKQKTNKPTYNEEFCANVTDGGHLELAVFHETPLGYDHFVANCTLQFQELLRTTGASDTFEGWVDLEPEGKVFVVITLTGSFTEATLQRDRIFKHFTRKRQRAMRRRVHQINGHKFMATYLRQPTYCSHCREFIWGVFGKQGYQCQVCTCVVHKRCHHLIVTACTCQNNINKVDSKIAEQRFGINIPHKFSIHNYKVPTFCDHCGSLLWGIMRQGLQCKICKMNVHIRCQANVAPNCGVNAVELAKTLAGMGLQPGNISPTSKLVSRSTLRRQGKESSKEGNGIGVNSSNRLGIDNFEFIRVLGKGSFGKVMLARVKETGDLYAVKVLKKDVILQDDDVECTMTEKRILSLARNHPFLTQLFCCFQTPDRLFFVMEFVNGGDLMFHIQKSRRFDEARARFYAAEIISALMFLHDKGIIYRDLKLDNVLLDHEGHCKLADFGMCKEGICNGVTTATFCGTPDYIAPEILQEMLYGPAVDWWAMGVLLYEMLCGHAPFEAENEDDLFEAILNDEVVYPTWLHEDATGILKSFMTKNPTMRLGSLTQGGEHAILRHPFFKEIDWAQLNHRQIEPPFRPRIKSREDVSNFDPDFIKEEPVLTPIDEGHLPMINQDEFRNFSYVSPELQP

[14] = molecular target: Death-associated protein kinase 2 (Homo sapiens) (UniProt Q9UIK4); test: Residual activity of DAPK2 at 10 uM by microplate scintillation counting
Sequence of Death-associated protein kinase 2 (Homo sapiens) (Q9UIK4 whole entry, looked up): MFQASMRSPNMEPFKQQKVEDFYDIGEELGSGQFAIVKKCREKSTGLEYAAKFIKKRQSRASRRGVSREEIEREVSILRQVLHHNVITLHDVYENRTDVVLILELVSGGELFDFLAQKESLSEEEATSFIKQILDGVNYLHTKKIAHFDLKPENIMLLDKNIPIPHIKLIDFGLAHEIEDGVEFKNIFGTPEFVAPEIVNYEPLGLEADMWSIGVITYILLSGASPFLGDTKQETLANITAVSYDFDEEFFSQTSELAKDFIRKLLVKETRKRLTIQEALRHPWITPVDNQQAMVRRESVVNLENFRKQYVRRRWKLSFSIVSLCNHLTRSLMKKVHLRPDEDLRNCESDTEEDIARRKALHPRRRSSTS

[15] = molecular target: Wee1-like protein kinase (Homo sapiens) (UniProt P30291); test: Residual activity of WEE1 at 1 uM by microplate scintillation counting
Sequence of Wee1-like protein kinase (Homo sapiens) (P30291 whole entry, looked up): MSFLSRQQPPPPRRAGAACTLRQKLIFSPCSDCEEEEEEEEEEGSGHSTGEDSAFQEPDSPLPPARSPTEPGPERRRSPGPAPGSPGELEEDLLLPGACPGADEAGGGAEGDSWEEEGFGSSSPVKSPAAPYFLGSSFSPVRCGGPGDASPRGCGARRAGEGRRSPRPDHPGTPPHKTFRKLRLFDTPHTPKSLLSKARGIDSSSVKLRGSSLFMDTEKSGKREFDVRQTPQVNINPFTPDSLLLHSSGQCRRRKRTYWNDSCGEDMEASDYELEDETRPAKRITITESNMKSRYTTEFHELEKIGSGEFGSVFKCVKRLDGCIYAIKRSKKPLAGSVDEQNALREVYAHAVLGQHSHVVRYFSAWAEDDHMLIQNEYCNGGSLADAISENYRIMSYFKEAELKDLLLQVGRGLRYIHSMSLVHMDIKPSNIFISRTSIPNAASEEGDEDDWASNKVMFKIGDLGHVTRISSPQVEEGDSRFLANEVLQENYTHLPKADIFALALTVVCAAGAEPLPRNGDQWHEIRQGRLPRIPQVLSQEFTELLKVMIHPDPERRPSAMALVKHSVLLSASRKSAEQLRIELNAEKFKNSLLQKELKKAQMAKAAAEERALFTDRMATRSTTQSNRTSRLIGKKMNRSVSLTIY

[16] = molecular target: Maternal embryonic leucine zipper kinase (Homo sapiens) (UniProt Q14680); test: Residual activity of MELK at 0.1 uM by microplate scintillation counting
[17] = molecular target: Rho-associated protein kinase 1 (Homo sapiens) (UniProt Q13464); test: Residual activity of ROCK1 at 1 uM by microplate scintillation counting
[18] = molecular target: Ribosomal protein S6 kinase alpha-6 (Homo sapiens) (UniProt Q9UK32); test: Residual activity of RPS6KA6 at 0.1 uM by microplate scintillation counting
[19] = molecular target: Tyrosine-protein kinase Fer (Homo sapiens) (UniProt P16591); test: Residual activity of FER at 1 uM by microplate scintillation counting

Row | SMILES | residual activity [1] [%] | residual activity [2] [%] | residual activity [3] [%] | residual activity [4] [%] | residual activity [5] [%] | residual activity [6] [%] | residual activity [7] [%] | residual activity [8] [%] | residual activity [9] [%] | residual activity [10] [%] | residual activity [11] [%] | residual activity [12] [%] | residual activity [13] [%] | residual activity [14] [%] | residual activity [15] [%] | residual activity [16] [%] | residual activity [17] [%] | residual activity [18] [%] | residual activity [19] [%]
1 | COc1cc2c(Oc3ccc(-c4nc5ccccc5s4)cc3)ncnc2cc1OCCCN1CCN(C)CC1 | 55 | 124 | 96 | 28 | 100 | 92 | 12 | 74 | 88 | 114 | 93 | 2 | 71 | 15 | 99 | 111 | 102 | 96 | 107
2 | COc1cc2c(Oc3ccc(-c4nc5ccccc5s4)cc3)ncnc2cc1OCCCN1CCCC1 | 40 | 112 | 90 | 41 | 103 | 104 | 6 | 58 | 82 | 95 | 93 | 4 | 81 | 20 | 84 | 34 | 93 | 92 | 103
3 | COc1cc2c(Oc3ccc(-c4nc5ccccc5s4)cc3F)ncnc2cc1OCCCN1CCN(C)CC1 | 73 | 112 | 96 | 26 | 96 | 106 | 27 | 93 | 75 | 100 | 90 | 1 | 55 | 16 | 101 | 60 | 105 | 95 | 96
